Among the test systems are HL-60(TB) leukemia; OVCAR-4 ovarian; TK-10 renal; SK-MEL-2 melanoma; MALME-3M melanoma; HCC-2998 colon; CCRF-CEM leukemia; LOX IMVI melanoma; M14 melanoma; RPMI-8226 leukemia.
Holding throughout (test): NCI tumour cell line growth inhibition, 48 h

SMILES strings stand for the structures.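 Values below derive from 48-hour exposures of cells grown in 96-well plates, with endpoints linearly interpolated between the two concentrations bracketing the appropriate inhibition level. GI50 = concentration required for 50% inhibition of growth. TGI marks complete inhibition of growth.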

Turning to `COC(=O)OCc1ccc2c(c1)C(=O)c1c-2n(CCCBr)c(=O)c2cc([N+](=O)[O-])ccc12`, the GI50 with HL-60(TB) leukemia is 70.2 µM; in the test on OVCAR-4 ovarian, over 100 µM; in the test with TK-10 renal, 19.1 µM; in the test on SK-MEL-2 melanoma, over 100 µM; in the test on MALME-3M melanoma, over 100 µM; in the test with HCC-2998 colon it was 61.3 µM. For the same molecule, the GI50 in the test on CCRF-CEM leukemia is 45.9 µM; in the test with LOX IMVI melanoma, 74.3 µM. For the same molecule, the TGI with HL-60(TB) leukemia is over 100 µM; in the test on OVCAR-4 ovarian, over 100 µM; in the test on TK-10 renal, 61.3 µM; in the test on SK-MEL-2 melanoma, over 100 µM; in the test on MALME-3M melanoma, over 100 µM; in the test with HCC-2998 colon, over 100 µM. For the same molecule, the TGI in the test on CCRF-CEM leukemia and in the test on LOX IMVI melanoma was over 100 µM in each case.

Consider `CCCCN(CCCC)C(=O)C(=O)C(C)C(=O)CC` (stereo not given), for which the TGI in the test with HL-60(TB) leukemia, in the test with OVCAR-4 ovarian, in the test with TK-10 renal, in the test on SK-MEL-2 melanoma, with MALME-3M melanoma and in the test on M14 melanoma was over 100 µM in each case. Moreover, the TGI with HCC-2998 colon, in the test with RPMI-8226 leukemia and in the test on LOX IMVI melanoma was over 100 µM each time.

Regarding `CNC(=O)OC1C(O[C@H]2C[C@H]3[C@@H]4CC=C5C[C@@H](O)CC[C@]5(C)[C@H]4CC[C@]3(C)[C@H]2[C@H](C)C(=O)CCC(C)C)OCC(O)C1OC1OCC(O)C(O)C1OC(=O)c1ccc(OC)cc1` (stereo not given in full), the GI50 was 0.291 µM in the test with OVCAR-4 ovarian; 0.793 µM with TK-10 renal; 0.00933 µM with SK-MEL-2 melanoma; 0.0517 µM in the test with MALME-3M melanoma; 0.0137 µM in the test with M14 melanoma; 0.693 µM in the test with HCC-2998 colon. The GI50 was 0.00566 µM in the test with CCRF-CEM leukemia, under 0.00275 µM in the test with RPMI-8226 leukemia and 0.0106 µM in the test with LOX IMVI melanoma. The TGI turned out to be 7.36 µM in the test with OVCAR-4 ovarian; 7.69 µM with TK-10 renal; 0.324 µM in the test on SK-MEL-2 melanoma; 2.33 µM with MALME-3M melanoma; 0.0757 µM in the test with M14 melanoma; 5.25 µM in the test with HCC-2998 colon. Besides, the TGI worked out at 0.0373 µM with CCRF-CEM leukemia, 0.0112 µM with RPMI-8226 leukemia and 0.0688 µM with LOX IMVI melanoma.

`Cc1cc(C)n(C(=O)c2nn(-c3ccc(Cl)cc3)cc2O)n1`: the GI50 is 39.6 µM in the test on HL-60(TB) leukemia; 9.19 µM in the test on OVCAR-4 ovarian; 4.71 µM in the test on TK-10 renal; 4.59 µM with MALME-3M melanoma; 4.69 µM with M14 melanoma; 15.1 µM in the test on HCC-2998 colon. Also, the GI50 in the test with CCRF-CEM leukemia is 3.66 µM; in the test with RPMI-8226 leukemia, 3.34 µM; in the test with LOX IMVI melanoma it was 3.94 µM. The TGI in the test on HL-60(TB) leukemia was over 100 µM; in the test on OVCAR-4 ovarian, over 100 µM; in the test on TK-10 renal, over 100 µM; in the test on MALME-3M melanoma, 57.6 µM; in the test with M14 melanoma, over 100 µM; in the test on HCC-2998 colon, over 100 µM. Moreover, the values for the TGI in the test with CCRF-CEM leukemia, with RPMI-8226 leukemia and in the test with LOX IMVI melanoma were 54.5 µM, 17 µM and over 100 µM, respectively.

As to `O=C(CNc1ncco1)Nc1ccc(S(=O)(=O)c2ccc(NC(=O)CNc3ncco3)cc2)cc1`, the GI50 in the test with HL-60(TB) leukemia was 4.72 µM; in the test on TK-10 renal it was 11.7 µM; in the test with SK-MEL-2 melanoma it was 2.49 µM; in the test on MALME-3M melanoma, 2.12 µM; in the test on M14 melanoma, 1.7 µM; in the test with HCC-2998 colon, 3.44 µM. The values for the GI50 in the test on CCRF-CEM leukemia, in the test on RPMI-8226 leukemia and in the test with LOX IMVI melanoma were 1.08 µM, 1.11 µM and 0.308 µM, respectively. The TGI in the test with HL-60(TB) leukemia stood at 21.3 µM; with TK-10 renal, 25 µM; with SK-MEL-2 melanoma, 5.65 µM; in the test on MALME-3M melanoma, 4.56 µM; in the test on M14 melanoma, 3.55 µM; in the test with HCC-2998 colon it was 16.4 µM. In addition, the TGI stood at 5.91 µM with CCRF-CEM leukemia, 3.01 µM with RPMI-8226 leukemia and 1.92 µM with LOX IMVI melanoma.

Turning to `CCCCCCC#CC#Cc1cccc(=O)o1`, the GI50 in the test on OVCAR-4 ovarian was 9.12 µM; in the test on TK-10 renal, 2.67 µM; in the test on SK-MEL-2 melanoma, 9.27 µM; in the test with MALME-3M melanoma, 1.56 µM; with M14 melanoma, 0.878 µM; with HCC-2998 colon, 2.52 µM. In addition, the GI50 was 0.265 µM in the test on CCRF-CEM leukemia, 1.72 µM with RPMI-8226 leukemia and 0.122 µM in the test with LOX IMVI melanoma. Moreover, the TGI in the test with OVCAR-4 ovarian is 23.1 µM; with TK-10 renal, 8.23 µM; in the test on SK-MEL-2 melanoma it was over 100 µM; in the test with MALME-3M melanoma, 3.79 µM; in the test with M14 melanoma, 2.8 µM; with HCC-2998 colon, 6.12 µM. The TGI in the test on CCRF-CEM leukemia is over 19.8 µM; in the test with RPMI-8226 leukemia, 27.3 µM; with LOX IMVI melanoma, 0.43 µM.

As for `O=C(Nc1ccc(Cl)cc1)c1cc(S(=O)(=O)Nc2nnc(-c3ccccc3)c(-c3ccccc3)n2)c(SCc2ccccc2)cc1Cl`, the GI50 is 23.3 µM in the test on HL-60(TB) leukemia; 49.8 µM in the test with OVCAR-4 ovarian; 29.8 µM with TK-10 renal; 41.3 µM in the test with SK-MEL-2 melanoma; 34.2 µM in the test on MALME-3M melanoma; 21.2 µM in the test with M14 melanoma. The GI50 with HCC-2998 colon was 17.6 µM; with CCRF-CEM leukemia it was 29.7 µM; in the test on LOX IMVI melanoma, 17.3 µM. Besides, the TGI was over 68.3 µM in the test with HL-60(TB) leukemia; over 85.4 µM with OVCAR-4 ovarian; over 64.4 µM in the test on TK-10 renal; over 100 µM with SK-MEL-2 melanoma; over 100 µM in the test with MALME-3M melanoma; 51.6 µM with M14 melanoma. Further, the TGI in the test with HCC-2998 colon came out at 33.7 µM; in the test with CCRF-CEM leukemia it was 76.8 µM; in the test with LOX IMVI melanoma, 35.1 µM.

With `COc1cc2c([C@@H](OC(=O)c3ccccc3)c3ccc4c(c3)OCO4)nccc2c(OC)c1OC`, the TGI in the test on HL-60(TB) leukemia is 92.9 µM; in the test on OVCAR-4 ovarian it was over 100 µM; in the test on TK-10 renal it was over 100 µM; with MALME-3M melanoma, over 100 µM; in the test with M14 melanoma it was over 100 µM; in the test on HCC-2998 colon, over 100 µM. The TGI with CCRF-CEM leukemia is over 100 µM; in the test on RPMI-8226 leukemia, 51 µM; with LOX IMVI melanoma, over 100 µM.

On to `CC(C)(C)OC(=O)CN1CCc2c(sc3ncnc(N/N=C/c4cccc5ccccc45)c23)C1`, for which the GI50 with HL-60(TB) leukemia was 2.55 µM; in the test with OVCAR-4 ovarian it was 2.58 µM; in the test on TK-10 renal, 5.34 µM; in the test with SK-MEL-2 melanoma it was 5 µM; with MALME-3M melanoma it was 3.51 µM; in the test with HCC-2998 colon it was 3.6 µM. For the same molecule, the values for the GI50 in the test with CCRF-CEM leukemia, with RPMI-8226 leukemia and in the test on LOX IMVI melanoma were 1.56 µM, 1.05 µM and 1.72 µM, respectively. The TGI in the test on HL-60(TB) leukemia was 19.2 µM; with OVCAR-4 ovarian it was 14.1 µM; in the test on TK-10 renal it was over 33.3 µM; in the test on SK-MEL-2 melanoma, 12.3 µM; with MALME-3M melanoma, 8.69 µM; in the test with HCC-2998 colon it was 11.7 µM. Moreover, the TGI is over 33.3 µM in the test with CCRF-CEM leukemia, 4.22 µM in the test on RPMI-8226 leukemia and 5.93 µM in the test with LOX IMVI melanoma.

As for `COc1ccc(/C=C/C(=O)c2cc3c(N)c(C(=O)Nc4ccccc4C)sc3nc2C)cc1`, the GI50 was 0.239 µM in the test with HL-60(TB) leukemia; 1.42 µM with OVCAR-4 ovarian; 2.48 µM in the test on TK-10 renal; 0.387 µM in the test on SK-MEL-2 melanoma; 0.248 µM in the test on MALME-3M melanoma; 1.09 µM in the test with HCC-2998 colon. Further, the GI50 in the test with CCRF-CEM leukemia was 0.475 µM; with RPMI-8226 leukemia, 1.4 µM; in the test with LOX IMVI melanoma it was 0.768 µM. The TGI in the test with HL-60(TB) leukemia was 1.99 µM; in the test on OVCAR-4 ovarian it was over 50 µM; with TK-10 renal, over 50 µM; with SK-MEL-2 melanoma, over 50 µM; in the test with MALME-3M melanoma, over 50 µM; in the test on HCC-2998 colon, 3.61 µM. Moreover, the TGI was over 50 µM in the test on CCRF-CEM leukemia, over 25.5 µM with RPMI-8226 leukemia and 5.21 µM in the test on LOX IMVI melanoma.

With `Cn1c2ccccc2c(=O)c2c([N+](=O)[O-])ccc(NCCN)c21`, the TGI with HL-60(TB) leukemia amounted to 22.9 µM; with OVCAR-4 ovarian it was 24.9 µM; in the test on TK-10 renal it was 28.5 µM; in the test on SK-MEL-2 melanoma it was 36 µM; in the test on MALME-3M melanoma, 28.9 µM; in the test on M14 melanoma, 27.4 µM. In the test with HCC-2998 colon, this molecule came in with a TGI of 21.8 µM.

As to `CN1CCN(c2ccc(NC3=C(Cl)C(=O)c4ncccc4C3=O)cc2C#N)CC1`, the GI50 in the test on HL-60(TB) leukemia was 0.316 µM; in the test with OVCAR-4 ovarian it was 1.09 µM; with TK-10 renal it was 2.09 µM; in the test with SK-MEL-2 melanoma, 2.26 µM; with MALME-3M melanoma it was 1.47 µM; with M14 melanoma it was 1.74 µM. Further, the GI50 is 2.34 µM in the test with HCC-2998 colon and 1.51 µM in the test on LOX IMVI melanoma. The TGI in the test with HL-60(TB) leukemia was 1.24 µM; in the test with OVCAR-4 ovarian it was 2.36 µM; with TK-10 renal, 4.24 µM; in the test with SK-MEL-2 melanoma, 4.69 µM; in the test with MALME-3M melanoma, 2.81 µM; with M14 melanoma, 3.57 µM. Further, the TGI in the test with HCC-2998 colon is 7.03 µM; with LOX IMVI melanoma, 3.19 µM.

In the case of `COc1ccc(/C=C(/C)[N+](=O)[O-])cc1`, the TGI with HL-60(TB) leukemia was over 21.8 µM; with OVCAR-4 ovarian, 10.6 µM; with TK-10 renal it was 3.64 µM; in the test with SK-MEL-2 melanoma, 10.8 µM; in the test on MALME-3M melanoma, 4.59 µM; with M14 melanoma, 7.92 µM. The values for the TGI in the test with HCC-2998 colon, in the test on CCRF-CEM leukemia and with RPMI-8226 leukemia were 3.43 µM, 4.48 µM and 3.75 µM, respectively.

In the case of `CC(=O)[C-](C(C)=O)c1ccccc1.CC(=O)[C-](C(C)=O)c1ccccc1.CC[O-].CC[O-].[Ti+4]`, the GI50 with HL-60(TB) leukemia, with OVCAR-4 ovarian, with TK-10 renal, with SK-MEL-2 melanoma, with MALME-3M melanoma and in the test with M14 melanoma was over 100 µM each time. Moreover, the GI50 with HCC-2998 colon, with RPMI-8226 leukemia and in the test on LOX IMVI melanoma was over 100 µM in each case. Also, the TGI in the test on HL-60(TB) leukemia, in the test with OVCAR-4 ovarian, with TK-10 renal, in the test on SK-MEL-2 melanoma, with MALME-3M melanoma and with M14 melanoma was over 100 µM throughout. In addition, the TGI in the test on HCC-2998 colon, in the test on RPMI-8226 leukemia and in the test with LOX IMVI melanoma was over 100 µM in each case.

Source of the values: PubChem BioAssay (NCI).
